In patent EP0535626A1, “Use of 4-amino-1-(2-pyridyl)piperidines as anti-convulsivant and anti-epileptic agents” (SANOFI, priority 1991, dated 1993):

Key:
[1] = tested on: convulsions provoquées par électrochoc; test: Electroshock-induced convulsions test in mice; format: in vivo, souris; conditions: Mus musculus, ip, 0.5 h; Swiss female mice, intraperitoneal 30 minutes before the shock (12 volts, 0,4 secondes, corneal electrodes); read-out: DE₅₀ (doses protégeant 50% des animaux)
Description: (§1) La nouvelle activité anticonvulsivante des composés de formule (I), a été mise en évidence en évaluant les effets des composés (I) dans le test des convulsions provoquées par électrochoc chez la souris et dans le test des convulsions provoquées par le pentylénététrazole chez la souris selon la méthode décrite par C.S. Goodman, M. Singh Grewal, W.C. Brown et E.A. Swinyard dans J. Pharmacol. Exp. Ther. 108, 168-176, (1953).
(§2) Pour ces tests on a utilisé des souris Swiss femelles d'un poids corporel de 22 à 26 g, réparties en lot de 10 animaux chacun. Une semaine avant l'expérimentation, chaque lot de 10 a été mis en cage, gardé dans une pièce à température constante (21°C ± 1°C), en cycle jour/nuit, avec nourriture et boisson à volonté. Les produits de formule (I) à tester ainsi que le pentylénététrazole ont été mis en solution dans de l'eau distillée. Le volume d'injection des produits utilisés a été de 0,4 ml pour 20 g de poids corporel. • · Convulsions provoquées par le pentylénététrazole. Les composés de formule (I) ont été administrés par voie intrapéritonéale 30 minutes avant l'administration par voie intrapéritonéale de 130 mg/kg de pentylénététrazole (dose nécessaire pour que 80% des souris contrôlées présentent une crise convulsive). […]

[2] = tested on: convulsions provoquées par le pentylénététrazole; test: Pentylenetetrazole-induced convulsions test in mice; format: in vivo, souris; conditions: Mus musculus, ip, 0.5 h; Swiss female mice, intraperitoneal 30 minutes before 130 mg/kg pentylénététrazole intraperitoneal; read-out: DE₅₀ (doses protégeant 50% des animaux)
Description: as §1, §2

Compound: NC1CCN(c2cccc(Cl)n2)CC1 [4-amino-1-(6-chloro-2-pyridyl)pipéridine]
- ED50 [1]: < 3 mg/kg
- ED50 [2]: < 10 mg/kg
